Assay results: US10183014B2, “Ocular formulations for drug-delivery and protection of the anterior segment of the eye” (PanOptica, Inc., priority 2014, dated 2019)
Where two headings read alike, the source gives them in different places.

Experiments:
pathologic angiogenesis = experiment: Pathologic angiogenesis, murine cornea model, systemic administration; format: in vivo
[1] = Particle size distribution by laser diffraction light scattering; format: physicochemical; settings: API form HCl salt
Protocol: Particle size distribution can be analyzed using laser diffraction light scattering, e.g., with a Horiba LA-950 V2. Generic assumptions are made in setting conditions and the refractive index value. The distributions are volume based. Sample density is adjusted to a generic range of percent transmission on the blue LED light source. A small sample cell (filled with water) can be used rather than the flow through cell, to minimize sample quantity.
Particle size distribution was analyzed using laser diffraction light scattering with a Horiba LA-950 V2. Generic assumptions were made in setting conditions and the refractive index value. The distributions were volume based. Sample density was adjusted to a generic range of percent transmission on the blue LED light source. A small sample cell (filled with water) was used rather than the flow through cell, to minimize sample quantity.

MAP4K5 (KHS1) = MAP4K5 (KHS1) (Homo sapiens, UniProt Q9Y4K4); experiment: In vitro inhibition of tyrosine kinases; format: biochemical; settings: read-out: Mean % Inhibition at 1 μM Compound-I; 1 μM (568.9 ng/mL)
MAP4K5 (KHS1), sequence (Q9Y4K4 whole entry, species assumed): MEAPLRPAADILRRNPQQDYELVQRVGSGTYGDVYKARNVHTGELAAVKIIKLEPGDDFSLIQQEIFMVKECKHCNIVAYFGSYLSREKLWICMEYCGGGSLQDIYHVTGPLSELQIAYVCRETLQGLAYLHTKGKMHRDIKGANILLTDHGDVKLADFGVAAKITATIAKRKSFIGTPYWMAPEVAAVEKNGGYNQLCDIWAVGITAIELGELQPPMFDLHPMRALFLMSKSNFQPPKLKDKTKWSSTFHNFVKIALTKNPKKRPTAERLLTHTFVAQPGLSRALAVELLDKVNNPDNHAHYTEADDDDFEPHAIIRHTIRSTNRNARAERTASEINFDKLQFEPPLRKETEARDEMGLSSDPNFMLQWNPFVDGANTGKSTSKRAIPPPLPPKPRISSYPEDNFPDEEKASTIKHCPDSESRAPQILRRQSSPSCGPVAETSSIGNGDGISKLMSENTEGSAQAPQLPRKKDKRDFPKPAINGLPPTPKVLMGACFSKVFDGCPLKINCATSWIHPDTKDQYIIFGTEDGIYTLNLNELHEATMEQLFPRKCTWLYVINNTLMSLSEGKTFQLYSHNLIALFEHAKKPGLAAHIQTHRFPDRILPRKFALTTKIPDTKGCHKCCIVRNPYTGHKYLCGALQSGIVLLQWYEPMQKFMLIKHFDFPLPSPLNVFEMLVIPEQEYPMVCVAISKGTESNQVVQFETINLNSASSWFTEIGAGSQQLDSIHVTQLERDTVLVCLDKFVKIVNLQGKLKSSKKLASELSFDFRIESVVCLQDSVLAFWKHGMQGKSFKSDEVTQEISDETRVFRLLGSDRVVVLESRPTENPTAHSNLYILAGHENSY

SRC N1 = SRC N1 (Homo sapiens, UniProt P12931); experiment: In vitro inhibition of tyrosine kinases; format: biochemical; settings: read-out: Mean % Inhibition at 1 μM Compound-I; 1 μM (568.9 ng/mL)
SRC N1, sequence (P12931 1-542 isoform P12931-2): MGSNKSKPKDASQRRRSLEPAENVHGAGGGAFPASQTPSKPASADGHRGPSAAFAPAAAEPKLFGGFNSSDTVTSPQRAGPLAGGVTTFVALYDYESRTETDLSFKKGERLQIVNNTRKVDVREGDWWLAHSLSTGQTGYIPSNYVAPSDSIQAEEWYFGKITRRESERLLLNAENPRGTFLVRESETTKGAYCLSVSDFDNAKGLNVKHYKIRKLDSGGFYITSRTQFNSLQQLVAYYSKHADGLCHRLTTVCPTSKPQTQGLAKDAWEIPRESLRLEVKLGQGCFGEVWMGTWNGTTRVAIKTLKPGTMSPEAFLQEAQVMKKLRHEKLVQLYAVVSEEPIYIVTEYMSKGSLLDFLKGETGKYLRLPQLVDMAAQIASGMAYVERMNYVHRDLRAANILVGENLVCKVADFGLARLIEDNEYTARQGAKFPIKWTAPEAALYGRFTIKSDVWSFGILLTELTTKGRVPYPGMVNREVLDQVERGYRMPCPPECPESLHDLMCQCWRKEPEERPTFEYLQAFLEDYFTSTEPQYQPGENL

PTK6 (Brk) = PTK6 (Brk) (Homo sapiens, UniProt Q13882); experiment: In vitro inhibition of tyrosine kinases; format: biochemical; settings: read-out: Mean % Inhibition at 1 μM Compound-I; 1 μM (568.9 ng/mL)
PTK6 (Brk), sequence (Q13882 whole entry, species assumed): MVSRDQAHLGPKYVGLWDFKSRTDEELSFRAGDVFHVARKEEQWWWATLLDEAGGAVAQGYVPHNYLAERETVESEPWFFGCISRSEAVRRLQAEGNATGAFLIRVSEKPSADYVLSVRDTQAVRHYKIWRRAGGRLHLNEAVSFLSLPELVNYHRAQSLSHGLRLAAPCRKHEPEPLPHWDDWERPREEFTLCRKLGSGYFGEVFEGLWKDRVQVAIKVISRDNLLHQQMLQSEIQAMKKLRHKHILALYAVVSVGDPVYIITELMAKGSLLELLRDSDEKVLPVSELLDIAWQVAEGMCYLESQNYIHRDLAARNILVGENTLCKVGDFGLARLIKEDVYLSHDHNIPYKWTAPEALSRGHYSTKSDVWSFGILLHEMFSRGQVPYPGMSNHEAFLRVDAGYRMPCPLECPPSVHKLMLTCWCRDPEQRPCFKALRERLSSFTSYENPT

LYN A = LYN A (Homo sapiens, UniProt P07948); experiment: In vitro inhibition of tyrosine kinases; format: biochemical; settings: read-out: Mean % Inhibition at 1 μM Compound-I; 1 μM (568.9 ng/mL)
LYN A, sequence (P07948 whole entry, species assumed): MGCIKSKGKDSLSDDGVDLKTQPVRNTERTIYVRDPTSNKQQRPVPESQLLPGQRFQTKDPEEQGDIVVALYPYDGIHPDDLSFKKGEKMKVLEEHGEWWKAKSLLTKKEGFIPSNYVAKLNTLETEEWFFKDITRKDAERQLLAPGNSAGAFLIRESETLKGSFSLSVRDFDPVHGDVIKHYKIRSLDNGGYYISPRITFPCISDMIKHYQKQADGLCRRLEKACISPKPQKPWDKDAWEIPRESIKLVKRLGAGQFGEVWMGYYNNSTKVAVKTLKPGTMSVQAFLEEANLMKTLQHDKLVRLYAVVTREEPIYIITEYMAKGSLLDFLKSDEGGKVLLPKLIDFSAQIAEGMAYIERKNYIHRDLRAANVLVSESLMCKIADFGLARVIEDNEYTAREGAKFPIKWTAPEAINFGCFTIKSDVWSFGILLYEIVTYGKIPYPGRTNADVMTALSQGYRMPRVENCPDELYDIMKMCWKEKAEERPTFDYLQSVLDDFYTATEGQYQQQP

[2] = test system: retinal and choroidal neovascularization; experiment: Pathologic retinal and choroidal neovascularization, rodent models, topical ocular delivery; format: in vivo
[3] = Ocular pharmacokinetics of formulations, Example 20-5; format: in vivo, Dutch Belted rabbits; settings: Dutch Belted, rabbit, topical
Protocol: The study design (Table 19-1) consisted of forty-seven (47) Dutch Belted rabbits, each receiving a 30 μL bilateral topical ocular dose. Various suspension formulations of the present application were evaluated and compared against a cyclodextrin-based eye drops solution (Control Group 1, Table 19-1). Formula II or Compound-I was used in the test suspensions as well as the Eye Drops solution.
Ocular sampling occurred one hour following the first daily dose on Day 5 for all groups. Whole blood samples using K2EDTA as an anticoagulant were collected from all animals on Day 5, 1 hour post dose. The whole blood was placed on ice until samples were spun in a centrifuge to separate the plasma. Aqueous humor, conjunctiva, cornea, central retina, peripheral retina, central choroid, and peripheral choroid samples were collected following necropsy. Samples were then frozen at −70° C. or lower. For all Groups 1-15, plasma, central retina, central choroid, and cornea samples were assayed. For Group 5 only, samples were analyzed for Vitamin K3.
An analytical method for the analysis of Vitamin K3 was determined in plasma, central retina, central choroid, and cornea samples from Group 5 animals. A calibration curve prepared in control vitreous humor was used to determine the concentration of Vitamin K3. Internal standard (IS) responses were inconsistent for the central choroid and plasma samples. Thus, positive plasma results were likely due to the reduced IS response.

[4] = excipient HPMC, roller speed low, media size 3 mm, particles under storage 21 days, RT
[5] = excipient Pluronic F-127, roller speed high, media size 0.8 mm
[6] = excipient Tyloxapol, milling not given
[7] = excipient Tyloxapol, roller speed high, media size 0.8 mm, particles under storage 6 days, 40° C.
[8] = excipient Tyloxapol, roller speed low, media size 3 mm

Cl.NC(=O)c1c(OCc2c(F)cc(Br)cc2F)nsc1NC(=O)NCCCCN1CCCC1 [Compound-I, 3-[(4-bromo-2,6-difluorophenyl)methoxy]-5-[[[[4-(1-pyrrolidinyl)butyl]amino]carbonyl]amino]-4-isothiazolecarboxamide hydrochloride]
Pathologic angiogenesis (pathologic angiogenesis): inhibit | PSD (Particle Size Distribution) Mean [1, 4]: ~450 nm | PSD (Particle Size Distribution) Median [1, 4]: ~170 nm | PSD (Particle Size Distribution) Mean [1, 5]: ~100 nm | PSD (Particle Size Distribution) Median [1, 5]: ~100 nm | PSD (Particle Size Distribution) Mean [1, 6]: ~110 nm | PSD (Particle Size Distribution) Median [1, 6]: ~110 nm | PSD (Particle Size Distribution) Mean [1, 7]: ~120 nm | PSD (Particle Size Distribution) Median [1, 7]: ~110 nm | PSD (Particle Size Distribution) Mean [1, 8]: ~8500 nm | PSD (Particle Size Distribution) Median [1, 8]: ~6700 nm | inhibition at 1 µM (MAP4K5 (KHS1)): 94% | inhibition at 1 µM (SRC N1): 83% | inhibition at 1 µM (PTK6 (Brk)): 88% | inhibition at 1 µM (LYN A): 81% | Pathologic retinal and choroidal neovascularization [2]: significant inhibition | concentration at 1 h ([3]; central choroid, 1 mg/mL (30 μL per eye, bilateral), Group 7: 1 mg/mL suspension, 50 μm particles, TRIS 0.60%, glycerol 2%, HEC 0.2%, HPMC 0.08%, Vitamin K3 1 μM, pH 6, QD for 4 days, 1 hr post dose on Day 5, read-out: Central Choroid concentration): 59 nM | concentration at 1 h ([3]; central choroid, 2 mg/mL (30 μL per eye, bilateral), Group 9: 2 mg/mL suspension, 50 μm particles, TRIS 0.60%, glycerol 2%, HEC 0.2%, HPMC 0.08%, Vitamin K3 1 μM, pH 6, QD for 4 days, 1 hr post dose on Day 5, read-out: Central Choroid concentration): 90.8 nM | concentration at 1 h ([3]; central choroid, 4 mg/mL (30 μL per eye, bilateral), Group 5: 4 mg/mL suspension (Control), 30 μm particles (Table 19-1) / Native (≈50) (Table 19-2), TRIS 0.60%, glycerol 2%, HEC 0.2%, HPMC 0.08%, Vitamin K3 1 μM, pH 6, QD for 4 days, 1 hr post dose on Day 5, read-out: Central Choroid concentration): 129 nM | concentration at 1 h ([3]; central choroid, 4 mg/mL, 30 μL per eye, pH 6, Group 1: 4 mg/mL Ophthalmic Solution, pH 6 (Control), QD for 4 days, 1 hr post dose on Day 5, read-out: Central Choroid concentration): 129 nM | concentration at 1 h ([3]; central choroid, 4 mg/mL, 30 μL per eye, pH 6, read-out: Central Choroid concentration): 151 nM | concentration at 1 h ([3]; central choroid, 30 μL per eye, Group 10: 2 mg/mL suspension, 50 μm particles, TRIS 0.60%, glycerol 2%, HEC 0.2%, HPMC 0.08%, Vitamin K3 1 μM, pH 6, BID for 4 days, 1 hr post dose on Day 5, read-out: Central Choroid concentration): 116 nM | concentration at 1 h ([3]; central choroid, 30 μL per eye, Group 11: 6 mg/mL suspension, 50 μm particles, TRIS 0.60%, glycerol 2%, HEC 0.2%, HPMC 0.08%, Vitamin K3 1 μM, pH 6, QD for 4 days, 1 hr post dose on Day 5, read-out: Central Choroid concentration): 148 nM | concentration at 1 h ([3]; central choroid, 30 μL per eye, Group 12: 10 mg/mL suspension, 50 μm particles, TRIS 0.60%, glycerol 2%, HEC 0.2%, HPMC 0.08%, Vitamin K3 1 μM, pH 6, QD for 4 days, 1 hr post dose on Day 5, read-out: Central Choroid concentration): 199 nM | concentration at 1 h ([3]; central retina, 1 mg/mL (30 μL per eye, bilateral), Group 7: 1 mg/mL suspension, 50 μm particles, TRIS 0.60%, glycerol 2%, HEC 0.2%, HPMC 0.08%, Vitamin K3 1 μM, pH 6, QD for 4 days, 1 hr post dose on Day 5, read-out: Central Retina concentration): 25.6 nM | concentration at 1 h ([3]; central retina, 2 mg/mL (30 μL per eye, bilateral), Group 9: 2 mg/mL suspension, 50 μm particles, TRIS 0.60%, glycerol 2%, HEC 0.2%, HPMC 0.08%, Vitamin K3 1 μM, pH 6, QD for 4 days, 1 hr post dose on Day 5, read-out: Central Retina concentration): 63.4 nM | concentration at 1 h ([3]; central retina, 4 mg/mL (30 μL per eye, bilateral), Group 5: 4 mg/mL suspension (Control), 30 μm particles (Table 19-1) / Native (≈50) (Table 19-2), TRIS 0.60%, glycerol 2%, HEC 0.2%, HPMC 0.08%, Vitamin K3 1 μM, pH 6, QD for 4 days, 1 hr post dose on Day 5, read-out: Central Retina concentration): 44.2 nM | concentration at 1 h ([3]; central retina, 4 mg/mL, 30 μL per eye, pH 6, Group 1: 4 mg/mL Ophthalmic Solution, pH 6 (Control), QD for 4 days, 1 hr post dose on Day 5, read-out: Central Retina concentration): 55.1 nM | concentration at 1 h ([3]; central retina, 30 μL per eye, Group 11: 6 mg/mL suspension, 50 μm particles, TRIS 0.60%, glycerol 2%, HEC 0.2%, HPMC 0.08%, Vitamin K3 1 μM, pH 6, QD for 4 days, 1 hr post dose on Day 5, read-out: Central Retina concentration): 91.5 nM | concentration at 1 h ([3]; central retina, 30 μL per eye, Group 12: 10 mg/mL suspension, 50 μm particles, TRIS 0.60%, glycerol 2%, HEC 0.2%, HPMC 0.08%, Vitamin K3 1 μM, pH 6, QD for 4 days, 1 hr post dose on Day 5, read-out: Central Retina concentration): 114 nM | concentration at 1 h ([3]; cornea, 1 mg/mL (30 μL per eye, bilateral), Group 7: 1 mg/mL suspension, 50 μm particles, TRIS 0.60%, glycerol 2%, HEC 0.2%, HPMC 0.08%, Vitamin K3 1 μM, pH 6, QD for 4 days, 1 hr post dose on Day 5, read-out: Cornea concentration): 1240 nM | concentration at 1 h ([3]; cornea, 2 mg/mL (30 μL per eye, bilateral), Group 9: 2 mg/mL suspension, 50 μm particles, TRIS 0.60%, glycerol 2%, HEC 0.2%, HPMC 0.08%, Vitamin K3 1 μM, pH 6, QD for 4 days, 1 hr post dose on Day 5, read-out: Cornea concentration): 2280 nM | concentration at 1 h ([3]; cornea, 4 mg/mL (30 μL per eye, bilateral), Group 5: 4 mg/mL suspension (Control), 30 μm particles (Table 19-1) / Native (≈50) (Table 19-2), TRIS 0.60%, glycerol 2%, HEC 0.2%, HPMC 0.08%, Vitamin K3 1 μM, pH 6, QD for 4 days, 1 hr post dose on Day 5, read-out: Cornea concentration): 4470 nM | concentration at 1 h ([3]; cornea, 4 mg/mL, 30 μL per eye, pH 6, Group 1: 4 mg/mL Ophthalmic Solution, pH 6 (Control), QD for 4 days, 1 hr post dose on Day 5, read-out: Cornea concentration): 14300 nM | concentration at 1 h ([3]; cornea, 30 μL per eye, Group 10: 2 mg/mL suspension, 50 μm particles, TRIS 0.60%, glycerol 2%, HEC 0.2%, HPMC 0.08%, Vitamin K3 1 μM, pH 6, BID for 4 days, 1 hr post dose on Day 5, read-out: Cornea concentration): 5000 nM | concentration at 1 h ([3]; cornea, 30 μL per eye, Group 11: 6 mg/mL suspension, 50 μm particles, TRIS 0.60%, glycerol 2%, HEC 0.2%, HPMC 0.08%, Vitamin K3 1 μM, pH 6, QD for 4 days, 1 hr post dose on Day 5, read-out: Cornea concentration): 7070 nM | concentration at 1 h ([3]; cornea, 30 μL per eye, Group 12: 10 mg/mL suspension, 50 μm particles, TRIS 0.60%, glycerol 2%, HEC 0.2%, HPMC 0.08%, Vitamin K3 1 μM, pH 6, QD for 4 days, 1 hr post dose on Day 5, read-out: Cornea concentration): 24700 nM | concentration at 1 h ([3]; plasma, 1 mg/mL (30 μL per eye, bilateral), Group 7: 1 mg/mL suspension, 50 μm particles, TRIS 0.60%, glycerol 2%, HEC 0.2%, HPMC 0.08%, Vitamin K3 1 μM, pH 6, QD for 4 days, 1 hr post dose on Day 5, read-out: Plasma concentration): 2.18 nM | concentration at 1 h ([3]; plasma, 2 mg/mL (30 μL per eye, bilateral), Group 9: 2 mg/mL suspension, 50 μm particles, TRIS 0.60%, glycerol 2%, HEC 0.2%, HPMC 0.08%, Vitamin K3 1 μM, pH 6, QD for 4 days, 1 hr post dose on Day 5, read-out: Plasma concentration): 4.05 nM | concentration at 1 h ([3]; plasma, 4 mg/mL (30 μL per eye, bilateral), Group 5: 4 mg/mL suspension (Control), 30 μm particles (Table 19-1) / Native (≈50) (Table 19-2), TRIS 0.60%, glycerol 2%, HEC 0.2%, HPMC 0.08%, Vitamin K3 1 μM, pH 6, QD for 4 days, 1 hr post dose on Day 5, read-out: Plasma concentration): 6.26 nM | concentration at 1 h ([3]; plasma, 4 mg/mL, 30 μL per eye, pH 6, Group 1: 4 mg/mL Ophthalmic Solution, pH 6 (Control), QD for 4 days, 1 hr post dose on Day 5, read-out: Plasma concentration): 4.28 nM
